Source: patent publication US11098072B2, “Alkenyl and beta-substituted phosphonates as antimicrobial agents” (The George Washington University, priority 2017, dated 2021)
Where two headings read alike, the source gives them in different places.

Tests used:
DXR = settings: versus substrate DOXP and cofactor NADPH; cited from earlier work
[1] = tested on: P. falciparum had1 mutant strain; format: cell-based
P. falciparum [2] = experiment: Growth inhibition against P. falciparum; format: cell-based; settings: Plasmodium falciparum
in vitro = in vitro ADME; settings: mouse plasma, compound 1 μM, 37° C.; read-out: Plasma stability (t1/2)
Method: (§1) In this protocol, the metabolic stability of compounds at 1 μM was determined in mouse liver microsomes (MLM) and mouse plasma. For microsomal stability each test compound was incubated in an aqueous reaction mixture consisting of 0.25 […], 1.2 mM NADPH, 3.3 mM MgCl2, and 100 mM potassium phosphate buffer (pH 7.4). For plasma stability each test compound was incubated in mouse plasma (VWR). After incubation at 37° C. a 50 μL aliquot of the reaction was transferred to 200 μL ice cold acetonitrile containing internal standard (Enalapril, 100 ng/mL). The quenched reaction mixtures were centrifuged at 3200 rpm for 5 min, and 100 μL of the supernatant were transferred to 96-well plate and analyzed by LC-MS/MS using an Applied Biosystems-Sciex API 4000. Analyte/internal standard peak area ratios were used to evaluate stability. […] An Amour C18 column (2.1×30 mm, 5 μm; Analytical Sales and Services, Pompton Plains, N.J.) was used for chromatographic separation. Mobile phases were 0.1% formic acid, 1 mM triethylamine in water and acetonitrile with a flow rate of 0.35 mL/min. The starting phase was 0% acetonitrile increased to 100% acetonitrile over 3 minutes. Peak areas were integrated using Analyst Software (AB Sciex, Foster City, Calif.).

MEP pathway metabolites = experiment: MEP pathway metabolite assay (LC-MS/MS); format: cell-based, P. falciparum; settings: 3D7, 65 nM (5× IC50), 10 h
Text: Thus, a mass spectrometry-based method was used to quantify the MEP metabolites from untreated P. falciparum versus parasites treated with this compound (FIG. 4). These metabolites include the DXR substrate (1-deoxy-D-xylulose 5-phosphate, DOXP), the DXR product (2-C-methylerythritol 4-phosphate, MEP), and the downstream metabolites (4-diphosphocytidyl-2-C-methylerythritol (CDP-ME) and 2-C-methyl-D-erythritol 2,4-cyclopyrophosphate (MEcPP)).
Cultures were lysed with 5% saponin, the parasite pellets washed with 1× phosphate-buffered saline (PBS), and the pellets stored at −80° C. […]
For LC separation, a Luna-NH2 column (3 um, 150×2 mm, Phenomenex) was used flowing at 0.4 mL/min. […] Metabolites were detected using MRM transitions that were previously optimized using standards. […] For quantification, an external standard curve was prepared using a series of standard samples containing different concentrations of metabolites and fixed concentration of the internal standard. […]

[3] = Metabolic stability in mouse liver microsomes; format: in vitro ADME; settings: pH 7.4
Method: as §1

HepG2 cells = experiment: HepG2 cell inhibition (cytotoxicity) assay; format: cell-based; settings: Homo sapiens, HepG2; Table 5, cytotoxicity; read-out: HepG2 IC50
Method: For cytotoxicity assays, HepG2 cells (ATCC HB-8065) were grown in DMEM supplemented with 4 mM L-glutamine (Gibco #11966-025) with either 4.5 g/L D-glucose or 1.8 g/L galactose as carbon source. Cells were trypsinized, resuspended in the respective medium (DMEM/glutamine/glucose or DMEM/glutamine/galactose) to 4×10^5 cells/mL and 50 μL/well transferred to flat-bottom white opaque tissue culture plates (Falcon #353296) containing 50 μL/well of the respective medium with test compound. Compound concentrations were two-fold dilutions ranging from 50 μM to 0.049 μM as well as the drug-free DMSO-only control. All concentrations were tested in duplicate for each carbon source. After 24 h incubation at 5% CO2, 37° C., 10 μL/well of Celltiter-Glo reagent (Promega #G9241) was added and luminescence recorded after 20 min incubation in the dark.

[4] = In vivo exposure study in mice; parameters: species or system Swiss Webster mice; settings: 20 mg/kg i.p., Swiss Webster mice
Method: We designed a compound exposure study to determine plasma concentration of 12a under similar conditions to the efficacy study.
Animal care and all procedures were conducted at Charles River Laboratories (Wilmington, Mass.) and performed in accordance with the National Institutes of Health Guide for the Care and Use of Laboratory Animals and approved by the institutional animal care and use committee. […] The suspension was administered to unfasted female Swiss Weber mice (n=3) at 20 mg/kg i.p. Plasma samples (10 μL) were removed at 0.25, 0.5, 1, 2, 4, 6 and 8 h and stored at −80° C. Plasma samples were added to ice cold acetonitrile containing the internal standard, glafenine, as appropriate to bring samples into the standard curve range (50-10,000 ng/ml), then centrifuged for 5 minutes at 3200 rpm and the supernatant transferred to a 96-well sample plate for analysis by liquid chromatography-tandem mass spectrometry. The MRM transitions for glafenine and 12a were m/z: 370.9>296.9 and 180.075>119.9, respectively. A Synergi 4 μm Hydro-RP column (250×4.6 mm, 80 Å) was used for chromatographic separation. Mobile phases were 0.1% formic acid in water and acetonitrile with a flow rate of 1.2 mL/min. The starting phase was 0% acetonitrile for 3 minutes, increased to 60% acetonitrile over 6 minutes. Peak areas were integrated using Analyst Software (AB Sciex, Foster City, Calif.).

P. berghei ANKA = experiment: P. berghei-infected mouse model of malaria; format: in vivo; settings: for luciferin signal intensity (parasitemia): read seven days after infection
Method: Groups of mice were infected with luciferase-based blood-stage P. berghei ANKA by intraperitoneal (ip) injection. […] Seven days after infection, intensity of the luciferin signal was measured, correlating to the parasitemia burden.

P. falciparum [5] = settings: Table 6, footnote b: Edwards et al. 2017; read-out: P.f. IC50; cited from earlier work
P. falciparum DXR = molecular target: T1, P. falciparum DXR (Plasmodium falciparum, UniProt Q8IKG4); settings: read-out: Pf DXR IC50; Table 2, footnote a: Gießmann et al. 2008; cited from earlier work
T1 sequence (Q8IKG4 73-488): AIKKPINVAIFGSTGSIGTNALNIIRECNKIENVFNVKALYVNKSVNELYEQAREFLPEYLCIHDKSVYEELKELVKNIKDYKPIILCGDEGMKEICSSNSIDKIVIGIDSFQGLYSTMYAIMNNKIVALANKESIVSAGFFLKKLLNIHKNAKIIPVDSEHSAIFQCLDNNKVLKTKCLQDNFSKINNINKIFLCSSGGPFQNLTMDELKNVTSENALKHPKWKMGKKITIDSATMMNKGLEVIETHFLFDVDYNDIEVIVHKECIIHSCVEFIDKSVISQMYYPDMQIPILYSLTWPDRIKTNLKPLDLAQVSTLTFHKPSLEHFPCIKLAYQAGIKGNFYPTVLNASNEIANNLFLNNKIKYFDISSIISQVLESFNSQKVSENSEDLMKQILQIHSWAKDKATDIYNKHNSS

Mtb = settings: footnote a: Jackson et al. 2014, cited from earlier work
[6] = Table 4, growth inhibition, read-out: Pf IC50
[7] = read-out: P. falciparum growth IC50

## O=CN(O)CCCP(=O)(O)O [Fosmidomycin, reference compound]
DXR
  binding mode to DXR: competitively with substrate DOXP and noncompetitively with cofactor NADPH
[1]; in words
  resistance of had1 parasites compared with wild-type: resistant
P. falciparum [2]; Table 3, diethyl phosphonate analogs, read-out: P.f. IC50
  IC50: 0.175 µg/mL
P. falciparum [2]; [6]
  IC50: 854 nM
P. falciparum [2]; [7]
  IC50: 854 nM

## CC(C)(C)C(=O)OCOP(=O)(/C=C/CN(O)C=O)OCOC(=O)C(C)(C)C [Compound 18a, [({[(2,2-dimethylpropanoyl)oxy]methoxy}[(1E)-3-(N-hydroxyformamido)prop-1-en-1-yl]phosphoryl)oxy]methyl 2,2-dimethylpropanoate]
In vitro
  half-life at 1 μM: < 5 min
MEP pathway metabolites
  DOXP levels, treated vs untreated parasites: did not show significant difference
MEP pathway metabolites; MEP, CDP-ME, MEcPP
  levels of metabolites downstream of DXR, treated vs untreated parasites: reduced levels
[3]; mouse, microsomes
  half-life at 1 μM: < 5 min
[3]; mouse liver microsomes, compound 1 μM, 37° C., read-out: Metabolic stability MLM (t1/2)
  half-life: < 5 min
HepG2 cells
  IC50: > 50000 nM
[4]
  conversion of prodrug to 12a in vivo: rapidly converted to 12a
P. berghei ANKA; 20 mg/kg i.p.
  drop in luciferin signal intensity compared to vehicle: 3 log
P. berghei ANKA; 20 mg/kg i.p. daily for five days
  luciferin signal intensity (parasitemia): 2.87×10^3
P. berghei ANKA; 50 mg/kg i.p. daily for five days
  luciferin signal intensity (parasitemia): 2.34×10^3
[1]; mutant supplied with wild-type copy of HAD1
  sensitivity in had1+HAD1-GFP strain: restored
[1]; shift of IC50 curve
  resistance of had1 parasites compared with wild-type 3D7: 2.5 fold
P. falciparum [2]; [6]
  IC50: 13 nM
P. falciparum [2]; [7]
  IC50: 13 nM

## CC(=O)N(O)C/C=C/P(=O)(O)O [Compound 2]
P. falciparum [5]
  IC50: 203 nM
P. falciparum DXR
  IC50: 18 nM
Mtb; minimal media (GAST-Fe)
  Mtb MIC99 Gast/Fe: 150^a μg/mL
Mtb; rich media (7H9)
  Mtb MIC99 7H9: >200^a μg/mL
